Measurements: patent publication US11807625B2, “Capsid inhibitors for the prevention of HIV” (Gilead Sciences, Inc., priority 2019, dated 2023)

Assay: PK of compound of Formula (Ia) after single subcutaneous dose of solution formulations in beagle dogs
Assay type: in vivo
Details: male, beagle, dog, plasma, sc, 12 mg/kg, beagle dogs, SC 12 mg/kg
Description: Formulations containing the compound of Formula (Ia), or a pharmaceutically acceptable salt thereof, were prepared as solutions and optionally administered subcutaneously or intramuscularly to rats, rabbits, and/or dogs.
(§1) A solution of about 400 mg/mL of the compound of Formula (Ia) having 17.00 w/w % water, 36.40 w/w % PEG 300, 35.20 w/w % of a sodium salt of a compound of Formula (Ia), 5.00 w/w % ethanol, and 6.40 w/w % poloxamer 188 was prepared. The solution was administered subcutaneously to male beagle dogs at a dose level of about 12 mg/kg and male Wistar Han rats at a dose level of about 50 mg/kg. The pharmacokinetic profiles were determined, and the results for dogs are summarized in Table and Table, while the results for rats are summarized in Table and Table below.
as §1, with “500” for “400”, “14.06” for “17.00”, “30.12” for “36.40”
A solution of about 300 mg/mL of the compound of Formula (Ia) having 23.33 w/w % water, 48.99 w/w % PEG 300, 26.47 w/w % of a sodium salt of a compound of Formula (Ia), and 1.21 w/w % poloxamer 188 was prepared. The solution was administered subcutaneously to male beagle dogs at a dose level of about 6 mg/kg and male Wistar Han rats at a dose level of about 50 mg/kg. The pharmacokinetic profiles were determined, and the results for dogs are summarized in Table and Table, while the results for rats are summarized in Table and Table below.
as §1, with “18.80” for “17.00”, “40.25” for “36.40”, “34.38” for “35.20”, “1.57” for “6.40”
as §1, with “500” for “400”, “16.29” for “17.00”, “34.88” for “36.40”, “41.92” for “35.20”, “1.91” for “6.40”
as §1, with “20.90” for “17.00”, “44.72” for “36.40”, “and 34.38” for “35.20”, “(Ia)” for “(Ia), 5.00 w/w % ethanol, and 6.40 w/w % poloxamer 188”
A solution of about 400 mg/mL of the compound of Formula (Ia) having 19.90 w/w % water, 42.59 w/w % PEG 300, 34.38 w/w % of a sodium salt of a compound of Formula (Ia), and 3.13 w/w % poloxamer 188 was prepared. The solution was administered subcutaneously to male beagle dogs at a dose level of about 12 mg/kg and male Wistar Han rats at a dose level of about 50 mg/kg. […]

[1] = 400 mg/mL solution W (5.00% ethanol, 1.57% poloxamer 188), Mean n = 3
[2] = 400 mg/mL solution W (5.00% ethanol, 1.57% poloxamer 188), animals #1-#3
[3] = 400 mg/mL solution Y (water, PEG 300), Mean n = 3
[4] = 400 mg/mL solution Y (water, PEG 300), animals #1-#3
[5] = 400 mg/mL solution Z (3.13% poloxamer 188), animals #1-#3
[6] = 400 mg/mL solution Z (3.13% poloxamer 188), Mean n = 3
[7] = 500 mg/mL solution X (5.00% ethanol, 1.91% poloxamer 188), Mean n = 3
[8] = 500 mg/mL solution X (5.00% ethanol, 1.91% poloxamer 188), animals #1-#3

CC(C)(C#Cc1ccc(-c2ccc(Cl)c3c(NS(C)(=O)=O)nn(CC(F)(F)F)c23)c([C@H](Cc2cc(F)cc(F)c2)NC(=O)Cn2nc(C(F)(F)F)c3c2C(F)(F)[C@@H]2C[C@H]32)n1)S(C)(=O)=O [compound of Formula (Ia)]
concentration at 96 h [1]: 43.5 nM
concentration at 168 h [1]: 40.3 nM
concentration at 336 h [1]: 133 nM
concentration at 504 h [1]: 121 nM
concentration at 672 h [1]: 145 nM
concentration at 840 h [1]: 82.4 nM
concentration at 1008 h [1]: 71.7 nM
concentration at 1008 h [2]: 80.7 nM
concentration at 1344 h [1]: 80.7 nM
concentration at 1344 h [2]: 72.3 nM
concentration at 1680 h [1]: 34.9 nM
concentration at 1680 h [2]: 28.8 nM
concentration at 2016 h [1]: 35.3 nM
concentration at 2016 h [2]: 25.8 nM
concentration at 2352 h [1]: 21.9 nM
concentration at 2352 h [2]: 16.8 nM
concentration at 2688 h [1]: 13.3 nM
concentration at 2688 h [2]: 9.87 nM
concentration at 3024 h [1]: 11.4 nM
concentration at 3024 h [2]: 10.5 nM
concentration at 3360 h [1]: 7.4 nM
concentration at 3360 h [2]: 6.7 nM
concentration at 3696 h [1]: 4.7 nM
concentration at 4032 h (400 mg/mL solution W (5.00% ethanol, 1.57% poloxamer 188), 4032 h, Mean n = 3): 5.6 nM
concentration at 4368 h (400 mg/mL solution W (5.00% ethanol, 1.57% poloxamer 188), 4368 h, Mean n = 3): 5.7 nM
concentration at 1 h [3]: 9.61 nM
concentration at 3 h [3]: 17.9 nM
concentration at 8 h [3]: 33.9 nM
concentration at 24 h [3]: 69.9 nM
concentration at 48 h [3]: 77.1 nM
concentration at 72 h [3]: 58.5 nM
concentration at 72 h [4]: 73.6 nM
concentration at 96 h [3]: 58.4 nM
concentration at 96 h [4]: 73.8 nM
concentration at 168 h [3]: 47.8 nM
concentration at 168 h [4]: 41.2 nM
concentration at 336 h [3]: 164 nM
concentration at 336 h [4]: 163 nM
concentration at 504 h [3]: 248 nM
concentration at 504 h [4]: 247 nM
concentration at 672 h [3]: 205 nM
concentration at 672 h [4]: 229 nM
concentration at 840 h [3]: 123 nM
concentration at 840 h [4]: 136 nM
concentration at 1008 h [3]: 95.8 nM
concentration at 1008 h [4]: 119 nM
concentration at 1334 h [3]: 58.2 nM
concentration at 1334 h [4]: 70.5 nM
concentration at 1680 h [3]: 28.4 nM
concentration at 1680 h [4]: 27.2 nM
concentration at 2016 h [3]: 18.6 nM
concentration at 2016 h [4]: 17.7 nM
concentration at 2352 h [3]: 15.4 nM
concentration at 2352 h [4]: 18.1 nM
concentration at 2688 h [3]: 9.47 nM
concentration at 2688 h [4]: 8.23 nM
concentration at 3024 h [3]: 6.15 nM
concentration at 3024 h [4]: 5.55 nM
concentration at 3360 h [3]: 5.11 nM
concentration at 3696 h [3]: 3.76 nM
concentration at 1 h (400 mg/mL solution Z (3.13% poloxamer 188), Mean): 1.58 nM
concentration at 1 h [5]: 1.66 nM
concentration at 3 h [6]: 5.83 nM
concentration at 8 h [6]: 34 nM
concentration at 24 h [6]: 80.5 nM
concentration at 48 h [6]: 61.6 nM
concentration at 72 h [6]: 65.1 nM
concentration at 72 h [5]: 89.8 nM
concentration at 96 h [6]: 70.6 nM
concentration at 168 h [6]: 60.6 nM
concentration at 336 h [6]: 172 nM
concentration at 504 h [6]: 228 nM
concentration at 504 h [5]: 301 nM
concentration at 672 h [6]: 117 nM
concentration at 672 h [5]: 144 nM
concentration at 840 h [6]: 95.7 nM
concentration at 840 h [5]: 107 nM
concentration at 1008 h [6]: 79.9 nM
concentration at 1008 h [5]: 93.3 nM
concentration at 1334 h [6]: 50.2 nM
concentration at 1334 h [5]: 51.6 nM
concentration at 1680 h [6]: 24.2 nM
concentration at 2016 h [6]: 15.2 nM
concentration at 2352 h [6]: 8.85 nM
concentration at 2688 h [6]: 6.06 nM
concentration at 3024 h [6]: 5.61 nM
concentration at 3024 h [5]: 3.65 nM
concentration at 3360 h [6]: 3.41 nM
concentration at 3696 h [6]: 1.75 nM
concentration at 1 h [7]: 12.1 nM
concentration at 3 h [7]: 15.2 nM
concentration at 3 h [8]: 19.4 nM
concentration at 8 h [7]: 26.1 nM
concentration at 8 h [8]: 22.3 nM
